Active and inactive are the calls of the source. No cut-off for these calls is given here.
Key:
[1] = tested on: NCI-H1975; assay: Antiproliferative activity against human NCI-H1975 cells assessed as growth inhibition incubated upto 72 hrs by CellTiter96 Aqueous One Solution Cell Proliferation assay; format: functional
[2] = target: T1, Heat shock protein HSP90 (Homo sapiens) (UniProt P07900+P08238); assay: Inhibition of HSP90 in human NCI-H1975 cells assessed as downregulation of Her2 expression at 2 uM incubated for 24 hrs by western blot analysis; format: cell-based
[3] = target: T1, Heat shock protein HSP90 (Homo sapiens); assay: Inhibition of HSP90 in human NCI-H1975 cells assessed as downregulation of EGFR expression at 2 uM incubated for 24 hrs by western blot analysis; format: cell-based
[4] = target: T1, Heat shock protein HSP90 (Homo sapiens); assay: Inhibition of HSP90 in human NCI-H1975 cells assessed as downregulation of Met expression at 2 uM incubated for 24 hrs by western blot analysis; format: cell-based
[5] = target: T1, Heat shock protein HSP90 (Homo sapiens); assay: Inhibition of HSP90 in human NCI-H1975 cells assessed as downregulation of Akt expression at 2 uM incubated for 24 hrs by western blot analysis; format: cell-based
[6] = target: T1, Heat shock protein HSP90 (Homo sapiens); assay: Inhibition of HSP90 in human NCI-H1975 cells assessed as upregulation of HSP70 expression at 2 uM incubated for 24 hrs by western blot analysis; format: cell-based
[7] = target: T2, Protein deacetylase HDAC6 (Homo sapiens) (UniProt Q9UBN7); assay: Inhibition of HDAC6 in human NCI-H1975 cells assessed as increase in acetylation of HSP90-Lys 294 residue at 2 uM incubated for 24 hrs by western blot analysis; format: cell-based
T2 sequence (whole entry): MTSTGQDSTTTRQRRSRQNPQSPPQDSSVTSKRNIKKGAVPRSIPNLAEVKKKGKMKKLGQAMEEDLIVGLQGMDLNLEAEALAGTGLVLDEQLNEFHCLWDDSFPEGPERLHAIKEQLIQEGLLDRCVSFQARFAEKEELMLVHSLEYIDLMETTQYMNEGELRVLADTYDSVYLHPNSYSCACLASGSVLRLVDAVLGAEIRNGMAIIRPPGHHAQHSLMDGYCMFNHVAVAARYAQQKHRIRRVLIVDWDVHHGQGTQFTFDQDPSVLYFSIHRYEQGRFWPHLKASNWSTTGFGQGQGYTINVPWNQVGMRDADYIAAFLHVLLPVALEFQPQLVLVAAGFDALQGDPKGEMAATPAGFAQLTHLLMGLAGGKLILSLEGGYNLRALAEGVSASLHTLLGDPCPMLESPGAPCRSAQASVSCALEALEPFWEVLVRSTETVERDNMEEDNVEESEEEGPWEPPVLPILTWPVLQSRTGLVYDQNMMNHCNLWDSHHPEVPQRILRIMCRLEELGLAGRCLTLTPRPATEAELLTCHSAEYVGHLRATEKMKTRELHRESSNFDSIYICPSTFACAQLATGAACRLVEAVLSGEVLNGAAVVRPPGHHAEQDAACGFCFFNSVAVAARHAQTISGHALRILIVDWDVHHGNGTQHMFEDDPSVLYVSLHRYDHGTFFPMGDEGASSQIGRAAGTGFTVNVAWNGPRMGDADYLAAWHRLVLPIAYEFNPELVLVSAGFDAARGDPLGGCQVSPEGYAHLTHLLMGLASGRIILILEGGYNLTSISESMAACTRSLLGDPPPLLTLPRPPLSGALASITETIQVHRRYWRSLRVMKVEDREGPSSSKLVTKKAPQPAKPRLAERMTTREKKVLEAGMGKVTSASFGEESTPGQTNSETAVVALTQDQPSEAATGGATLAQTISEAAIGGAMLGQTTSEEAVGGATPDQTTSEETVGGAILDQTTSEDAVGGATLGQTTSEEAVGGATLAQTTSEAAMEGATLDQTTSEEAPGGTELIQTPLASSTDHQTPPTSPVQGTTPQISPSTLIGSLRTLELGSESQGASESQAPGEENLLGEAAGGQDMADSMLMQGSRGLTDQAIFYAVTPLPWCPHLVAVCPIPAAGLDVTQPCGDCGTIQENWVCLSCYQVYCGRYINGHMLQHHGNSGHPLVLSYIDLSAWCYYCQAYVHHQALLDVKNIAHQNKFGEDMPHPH

[8] = target: Heat shock protein HSP 90-alpha (Homo sapiens, UniProt P07900); assay: Inhibition of His-tagged N-terminal recombinant HSP90alpha (unknown origin) expressed in Escherichia coli BL21 (DE3) incubated for 4 hrs by fluorescence polarization based microplate reader assay
[9] = target: T2, Protein deacetylase HDAC6 (Homo sapiens); assay: Inhibition of HDAC6 in human NCI-H1975 cells assessed as increase in acetylation of alpha tubulin at 1 uM incubated for 24 hrs by western blot analysis; format: cell-based

Row | SMILES | GI50 [1] | IC50 [8] | other results
1 | COC(=O)c1ccc(CN(C)C(=O)c2cc(C(C)C)c(O)cc2O)cc1 | 3.5 µM |  | inhibition [2]: Active; inhibition [3]: Active; inhibition [4]: Active; inhibition [5]: Active; inhibition [6]: Active; inhibition [7]: Active
2 | CC(C)c1cc(C(=O)N(C)Cc2ccc(C(=O)O)cc2)c(O)cc1O | 30 µM |  | 
3 | CN(Cc1ccc(C(=O)NO)cc1)C(=O)c1ccccc1 | 8.2 µM | > 1 µM | 
4 | COC1=C2C[C@@H](C)C[C@H](OC)[C@H](O)[C@@H](C)/C=C(\C)[C@H](OC(N)=O)[C@@H](OC)/C=C\C=C(/C)C(=O)NC(=CC1=O)C2=O |  |  | inhibition [9]: Active
5 | CN(Cc1ccc(C(=O)NO)cc1)C(=O)c1cc(Cl)c(O)cc1O | 68.8 µM | 0.608 µM | 

More lines, main results first:

Row | GI50 [1] | IC50 [8] | SMILES | other results
6 | 13.2 µM | 0.693 µM | CCN(Cc1ccc(C(=O)NO)cc1)C(=O)c1cc(Cl)c(O)cc1O | 
7 | 23.6 µM | 0.367 µM | CCCCN(Cc1ccc(C(=O)NO)cc1)C(=O)c1cc(C(C)C)c(O)cc1O | 
8 | 66.4 µM | 0.632 µM | CCCCN(Cc1ccc(C(=O)NO)cc1)C(=O)c1cc(Cl)c(O)cc1O | 
9 | 73.6 µM | > 1 µM | CCCN(Cc1ccc(C(=O)NO)cc1)C(=O)c1cc(Cl)c(O)cc1O | 
10 | 7 µM | 0.22 µM | CCN(Cc1ccc(C(=O)NO)cc1)C(=O)c1cc(C(C)C)c(O)cc1O | 
11 | 23.7 µM | 0.648 µM | CCCN(Cc1ccc(C(=O)NO)cc1)C(=O)c1cc(C(C)C)c(O)cc1O | 

Reference: ChEMBL document CHEMBL5113492, “Design, synthesis, and biological evalution of bifunctional inhibitors against Hsp90-HDAC6 interplay” (Eur J Med Chem, 2022)
